In patent US20210186924A1, “COMPOSITION FOR PROMOTING URIC ACID EXCRETION, COMPOSITION FOR INHIBITING URAT1 AND COMPOSITION FOR LOWERING BLOOD URIC ACID LEVEL” (SUNTORY HOLDINGS LIMITED, priority 2018, published 2021):
Converted amounts (≈) assume the structure as drawn.

Legend:
human URAT1 = molecular target: T1, human URAT1 (Homo sapiens, UniProt Q96S37); test: URAT1 inhibition: 14C-uric acid uptake in MDCK2 cells stably expressing human URAT1; type: cell-based; conditions: for IC50: read-out: IC50 (test substance concentration at which URAT1 was inhibited 50%) (converted); for URAT1 inhibition rate (result in words, FIGS. 1 to 4): test substance 1 to 200 μg/mL, uric acid uptake vs DMSO control
T1 construct: expressed in transfected cells
T1 sequence (Q96S37 1-553): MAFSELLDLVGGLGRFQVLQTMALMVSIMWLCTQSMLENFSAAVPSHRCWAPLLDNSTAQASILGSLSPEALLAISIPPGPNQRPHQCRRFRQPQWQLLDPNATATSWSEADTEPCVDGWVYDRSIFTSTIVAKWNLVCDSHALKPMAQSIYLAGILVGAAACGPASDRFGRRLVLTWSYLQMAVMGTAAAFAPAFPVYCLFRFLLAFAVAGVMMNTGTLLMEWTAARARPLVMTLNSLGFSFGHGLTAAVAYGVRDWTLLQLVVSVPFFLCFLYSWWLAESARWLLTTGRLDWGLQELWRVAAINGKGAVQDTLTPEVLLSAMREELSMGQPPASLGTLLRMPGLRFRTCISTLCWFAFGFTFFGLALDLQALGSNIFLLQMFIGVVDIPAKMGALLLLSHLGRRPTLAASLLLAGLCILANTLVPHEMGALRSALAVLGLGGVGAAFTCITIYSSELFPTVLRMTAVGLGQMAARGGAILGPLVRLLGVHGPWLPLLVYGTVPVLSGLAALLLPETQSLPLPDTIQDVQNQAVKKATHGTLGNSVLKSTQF
Description: Each test substance was dissolved in dimethyl sulfoxide (DMSO) and added to HBSS to give a test substance concentration of 1, 5, 10, 15, 20, 40, 60, 80, 100, or 200 μg/mL. […] Uric acid was added to HBSS to give a concentration of 20 μM. Subsequently, the cells were washed again with HBSS, and then dissolved in a 0.1 N sodium hydroxide aqueous solution. The radiation dose of 14 C in the solution was measured by a liquid scintillation counter, and the uptake amount of uric acid into the cells was measured. A positive control was provided by adding benzbromarone at 30 μM. A test substance non-addition group as a control was provided by adding only DMSO to HBSS (DMSO concentration: 1%). The tests were performed with n=3 for the control and for the test substances at each concentration. […] The uptake amount of uric acid was determined with an average of n=3. The calculation formula of the URAT1 inhibition rate (%) is as follows. The control group is the test substance non-addition group.
Inhibition rate (%)=100×{((uptake amount of uric acid in control group)−(uptake amount of uric acid in test substance addition group))/uptake amount of uric acid in control group}

[1] = high temperature of 100° C.; cited from earlier work
[2] = MDCK2 cells expressing human URAT1, 14C-uric acid 20 μM, 10 minutes, n=3

Row | SMILES | IC50 (human URAT1; [2]) [µM] | URAT1 inhibition rate (result in words, FIGS. 1 to 4) (human URAT1) | IC50 (test substance concentration at which URAT1 was inhibited 50%) (human URAT1; [2]) [µg/mL] | Thermal stability [1] | inhibition at 30 µM (human URAT1; MDCK2, read-out: URAT1 inhibition rate) [%]
1 | O=C1C[C@@H](c2ccc(O)c(O)c2)Oc2cc(O)cc(O)c21 [Eriodictyol, eriodictyol] | 43.5 | significant increase in the inhibition rate |  |  | 
2 | COc1ccc([C@@H]2CC(=O)c3c(O)cc(O[C@@H]4O[C@H](CO[C@@H]5O[C@@H](C)[C@H](O)[C@@H](O)[C@H]5O)[C@@H](O)[C@H](O)[C@H]4O)cc3O2)cc1O [Hesperidin, hesperidin] |  | significant increase in the inhibition rate | 16.97 (≈ 27.8 µM) |  | 
3 | COc1cc(O)c(CC=C(C)C)c2c1C(=O)CC(c1ccc(O)cc1)O2 (centres unmarked) [Isoxanthohumol, isoxanthohumol] | 25.1 | significant increase in the inhibition rate |  | stable even at a high temperature of 100 °C | 
4 | O=C1C[C@@H](c2ccc(O)cc2)Oc2cc(O)cc(O)c21 [Naringenin, naringenin] | 41.9 | significant increase in the inhibition rate |  |  | 
5 | CCc1oc2ccccc2c1C(=O)c1cc(Br)c(O)c(Br)c1 [benzbromarone, reference compound] |  |  |  |  | 99 to 100
6 | COc1cc(O)c(CC=C(C)C)c(O)c1C(=O)/C=C/c1ccc(O)cc1 [xanthohumol, reference compound] |  | did not show a significant increase in the inhibition rate |  |  | 
